From US10738056B2 (Aduro BioTech, Inc., priority 2017, dated 2020)

Legend:
[1] = target: Human cGAS amino acids 155-522 (Homo sapiens (Human), UniProt Q8N884); experiment: cGAS biochemical activity assay (ATP remaining, Kinase-Glo Max luminescence); settings: human cGAS 155-522, ATP remaining (Kinase-Glo Max); read-out: cGAS IC50
[2] = test system: cGAS/STING pathway in THP1 cells; experiment: THP1 cell-based cGAS/STING pathway activity assay (IRF-3-linked luciferase reporter); settings: Homo sapiens, THP-1
Description: A cellular assay can be used to assess the compounds of the invention for their ability to inhibit the cGAS/STING pathway. Cells that express a luciferase-based reporter that is linked to IRF-3 activation are used to determine response as a function of compound concentration. Such an assay is described in Vincent et al., Nature Communications 2017, 8(1):750, doi: 10.1038/s41467-017-00833-9.
A cellular assay can be used to assess the compounds of the invention for their ability to inhibit the cGAS/STING pathway. Cells that express a luciferase-based reporter that is linked to IRF-3 activation are used to determine response as a function of compound concentration. Such an assay is described in Vincent et al., Nature Communications 2017, 8(1):750, doi: 10.1038/s41467-017-00833-9. Compounds of the invention were assessed using similar assay methods in a THP1 cell assay to generate IC50 values as provided in the following Table 16. In this table, activity level “A” indicates an IC50 value less than 20 μM, “B” indicates an IC50 value between 20 and 100 μM, and “C” indicates an IC50 value above the upper limit of the assay (100 μM), or where an IC50 value could not be generated from the data.

Chain of Human cGAS amino acids 155-522 (Q8N884 157-522): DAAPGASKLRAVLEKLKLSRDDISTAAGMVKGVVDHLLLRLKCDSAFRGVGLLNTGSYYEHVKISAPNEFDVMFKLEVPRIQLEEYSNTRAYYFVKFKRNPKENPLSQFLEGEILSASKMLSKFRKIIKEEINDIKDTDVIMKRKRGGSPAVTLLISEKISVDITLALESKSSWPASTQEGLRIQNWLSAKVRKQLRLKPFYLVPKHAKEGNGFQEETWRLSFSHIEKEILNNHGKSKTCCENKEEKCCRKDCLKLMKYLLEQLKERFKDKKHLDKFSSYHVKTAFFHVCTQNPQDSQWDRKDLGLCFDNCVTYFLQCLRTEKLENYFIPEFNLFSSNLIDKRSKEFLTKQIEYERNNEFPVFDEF

IC50 [1]	IC50 [2]	SMILES
< 20 µM	20 to 100 µM	Cc1nc(NC(=O)c2c(C)[nH]c3c(-c4ccccc4)c(C(F)(F)F)nn3c2=O)oc1C [Compound A1056, N-(4,5-dimethyloxazol-2-yl)-5-methyl-7-oxo-3-phenyl-2-(trifluoromethyl)-4,7-dihydropyrazolo[1,5-a]pyrimidine-6-carboxamide]
< 20 µM	< 20 µM	Cc1[nH]c2c(-c3ccccc3)c(C(F)(F)F)nn2c(=O)c1C(=O)Nc1cccc2c1OC(F)(F)O2 [Compound A1062, N-(2,2-difluorobenzo[d][1,3]dioxol-4-yl)-5-methyl-7-oxo-3-phenyl-2-(trifluoromethyl)-4,7-dihydropyrazolo[1,5-a]pyrimidine-6-carboxamide]
< 20 µM	20 to 100 µM	COc1ccnc(NC(=O)c2c(C)[nH]c3c(-c4ccccc4)c(C(F)(F)F)nn3c2=O)c1 [Compound A1063, N-(4-methoxypyridin-2-yl)-5-methyl-7-oxo-3-phenyl-2-(trifluoromethyl)-4,7-dihydropyrazolo[1,5-a]pyrimidine-6-carboxamide]
< 20 µM	20 to 100 µM	COc1cccc(NC(=O)c2c(C)[nH]c3c(-c4ccccc4)c(C(F)(F)F)nn3c2=O)n1 [Compound A1064, N-(6-methoxypyridin-2-yl)-5-methyl-7-oxo-3-phenyl-2-(trifluoromethyl)-4,7-dihydropyrazolo[1,5-a]pyrimidine-6-carboxamide]
< 20 µM	20 to 100 µM	Cc1[nH]c2c(-c3ccccc3)c(C(F)(F)F)nn2c(=O)c1C(=O)Nc1ccn(C(C)C)n1 [Compound A1065, N-(1-isopropyl-1H-pyrazol-3-yl)-5-methyl-7-oxo-3-phenyl-2-(trifluoromethyl)-4,7-dihydropyrazolo[1,5-a]pyrimidine-6-carboxamide]
< 20 µM	< 20 µM	Cc1[nH]c2c(-c3ccccc3)c(C(F)(F)F)nn2c(=O)c1C(=O)Nc1cccc(OC(C)C)c1 [Compound A1066, N-(3-isopropoxyphenyl)-5-methyl-7-oxo-3-phenyl-2-(trifluoromethyl)-4,7-dihydropyrazolo[1,5-a]pyrimidine-6-carboxamide]
< 20 µM	> 100 µM	COc1cc(NC(=O)c2c(C)[nH]c3c(-c4ccccc4)c(C(F)(F)F)nn3c2=O)cc(OC)c1 [Compound A1067, N-(3,5-dimethoxyphenyl)-5-methyl-7-oxo-3-phenyl-2-(trifluoromethyl)-4,7-dihydropyrazolo[1,5-a]pyrimidine-6-carboxamide]
20 to 250 µM	> 100 µM	Cc1[nH]c2c(-c3ccccc3)c(C(F)(F)F)nn2c(=O)c1C(=O)Nc1cn[nH]c1 [Compound A1068, 5-methyl-7-oxo-3-phenyl-N-(1H-pyrazol-4-yl)-2-(trifluoromethyl)-4,7-dihydropyrazolo[1,5-a]pyrimidine-6-carboxamide]
< 20 µM	20 to 100 µM	Cc1[nH]c2c(-c3ccccc3)c(C(F)(F)F)nn2c(=O)c1C(=O)Nc1cccc(N)c1 [Compound A1069, N-(3-aminophenyl)-5-methyl-7-oxo-3-phenyl-2-(trifluoromethyl)-4,7-dihydropyrazolo[1,5-a]pyrimidine-6-carboxamide]
< 20 µM	< 20 µM	Cc1[nH]c2c(-c3ccccc3)c(C(F)(F)F)nn2c(=O)c1C(=O)Nc1cccc(C#N)c1 [Compound A1070, N-(3-cyanophenyl)-5-methyl-7-oxo-3-phenyl-2-(trifluoromethyl)-4,7-dihydropyrazolo[1,5-a]pyrimidine-6-carboxamide]
20 to 250 µM	20 to 100 µM	COCc1ccccc1NC(=O)c1c(C)[nH]c2c(-c3ccccc3)c(C(F)(F)F)nn2c1=O [Compound A1072, N-(2-(methoxymethyl)phenyl)-5-methyl-7-oxo-3-phenyl-2-(trifluoromethyl)-4,7-dihydropyrazolo[1,5-a]pyrimidine-6-carboxamide]
20 to 250 µM	> 100 µM	Cc1cc(NC(=O)c2c(C)[nH]c3c(-c4ccccc4)c(C(F)(F)F)nn3c2=O)n(C)n1 [Compound A1073, N-(1,3-dimethyl-1H-pyrazol-5-yl)-5-methyl-7-oxo-3-phenyl-2-(trifluoromethyl)-4,7-dihydropyrazolo[1,5-a]pyrimidine-6-carboxamide]
< 20 µM	> 100 µM	Cc1[nH]c2c(-c3ccccc3)c(C(F)(F)F)nn2c(=O)c1C(=O)Nc1ncco1 [Compound A1074, 5-methyl-N-(oxazol-2-yl)-7-oxo-3-phenyl-2-(trifluoromethyl)-4,7-dihydropyrazolo[1,5-a]pyrimidine-6-carboxamide]
< 20 µM	20 to 100 µM	Cc1cnc(NC(=O)c2c(C)[nH]c3c(-c4ccccc4)c(C(F)(F)F)nn3c2=O)o1 [Compound A1075, 5-methyl-N-(5-methyloxazol-2-yl)-7-oxo-3-phenyl-2-(trifluoromethyl)-4,7-dihydropyrazolo[1,5-a]pyrimidine-6-carboxamide]
< 20 µM	20 to 100 µM	Cc1[nH]c2c(-c3ccccc3)c(C(F)(F)F)nn2c(=O)c1C(=O)Nc1cc[nH]n1 [Compound A1076, 5-methyl-7-oxo-3-phenyl-N-(1H-pyrazol-3-yl)-2-(trifluoromethyl)-4,7-dihydropyrazolo[1,5-a]pyrimidine-6-carboxamide]
< 20 µM	> 100 µM	Cc1[nH]c2c(-c3ccccc3)c(C(F)(F)F)nn2c(=O)c1C(=O)Nc1cnn(C)c1 [Compound A1077, 5-methyl-N-(1-methyl-1H-pyrazol-4-yl)-7-oxo-3-phenyl-2-(trifluoromethyl)-4,7-dihydropyrazolo[1,5-a]pyrimidine-6-carboxamide]
< 20 µM	> 100 µM	Cc1[nH]c2c(-c3ccccc3)c(C(F)(F)F)nn2c(=O)c1C(=O)Nc1cc(C)n(C)n1 [Compound A1079, N-(1,5-dimethyl-1H-pyrazol-3-yl)-5-methyl-7-oxo-3-phenyl-2-(trifluoromethyl)-4,7-dihydropyrazolo[1,5-a]pyrimidine-6-carboxamide]
< 20 µM	20 to 100 µM	Cc1cc(NC(=O)c2c(C)[nH]c3c(-c4ccccc4)c(C(F)(F)F)nn3c2=O)[nH]n1 [Compound A1081, 5-methyl-N-(3-methyl-1H-pyrazol-5-yl)-7-oxo-3-phenyl-2-(trifluoromethyl)-4,7-dihydropyrazolo[1,5-a]pyrimidine-6-carboxamide]
< 20 µM	> 100 µM	Cc1[nH]c2c(-c3ccccc3)c(C(F)(F)F)nn2c(=O)c1C(=O)Nc1ccccc1S(C)(=O)=O [Compound A1083, 5-methyl-N-(2-(methylsulfonyl)phenyl)-7-oxo-3-phenyl-2-(trifluoromethyl)-4,7-dihydropyrazolo[1,5-a]pyrimidine-6-carboxamide]
< 20 µM	20 to 100 µM	Cc1[nH]c2c(-c3ccccc3)c(C(F)(F)F)nn2c(=O)c1C(=O)Nc1cccc(S(C)(=O)=O)c1 [Compound A1084, 5-methyl-N-(3-(methylsulfonyl)phenyl)-7-oxo-3-phenyl-2-(trifluoromethyl)-4,7-dihydropyrazolo[1,5-a]pyrimidine-6-carboxamide]
20 to 250 µM	20 to 100 µM	COc1ccc(NC(=O)c2c(C)[nH]c3c(-c4ccccc4)c(C(F)(F)F)nn3c2=O)cn1 [Compound A1088, N-(6-methoxypyridin-3-yl)-5-methyl-7-oxo-3-phenyl-2-(trifluoromethyl)-4,7-dihydropyrazolo[1,5-a]pyrimidine-6-carboxamide]
< 20 µM	20 to 100 µM	Cc1[nH]c2c(-c3ccccc3)c(C(F)(F)F)nn2c(=O)c1C(=O)Nc1cccnc1S(C)(=O)=O [Compound A1096, 5-methyl-N-(2-(methylsulfonyl)pyridin-3-yl)-7-oxo-3-phenyl-2-(trifluoromethyl)-4,7-dihydropyrazolo[1,5-a]pyrimidine-6-carboxamide]
20 to 250 µM	> 100 µM	COc1cnccc1NC(=O)c1c(C)[nH]c2c(-c3ccccc3)c(C(F)(F)F)nn2c1=O [Compound A1099, N-(3-methoxypyridin-4-yl)-5-methyl-7-oxo-3-phenyl-2-(trifluoromethyl)-4,7-dihydropyrazolo[1,5-a]pyrimidine-6-carboxamide]
< 20 µM	20 to 100 µM	COc1cccnc1NC(=O)c1c(C)[nH]c2c(-c3ccccc3)c(C(F)(F)F)nn2c1=O [Compound A1100, N-(3-methoxypyridin-2-yl)-5-methyl-7-oxo-3-phenyl-2-(trifluoromethyl)-4,7-dihydropyrazolo[1,5-a]pyrimidine-6-carboxamide]
< 20 µM	< 20 µM	Cc1[nH]c2c(-c3ccccc3)c(C(F)(F)F)nn2c(=O)c1C(=O)Nc1cccc2c1OCC2 [Compound A1101, N-(2,3-dihydrobenzofuran-7-yl)-5-methyl-7-oxo-3-phenyl-2-(trifluoromethyl)-4,7-dihydropyrazolo[1,5-a]pyrimidine-6-carboxamide]
< 20 µM	> 100 µM	Cc1[nH]c2c(-c3ccccc3)c(C(F)(F)F)nn2c(=O)c1C(=O)Nc1cccc2c1CCO2 [Compound A1102, N-(2,3-dihydrobenzofuran-4-yl)-5-methyl-7-oxo-3-phenyl-2-(trifluoromethyl)-4,7-dihydropyrazolo[1,5-a]pyrimidine-6-carboxamide]
